Test results as given in US20240109917A1 (ACTELION PHARMACEUTICALS LTD, priority 2020, published 2024).
Like-named read-outs stand apart in the source and are kept apart here.

Key:
[1] = molecular target: PDGFRβ (Rattus norvegicus (Rat), UniProt Q05030); test: PDGFRβ Cellular Assay (PDGFRb P-Y751 HTRF in A10 cells stimulated with PDGF-BB); assay type: cell-based
In short: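 Rat A10 cells, plated overnight, were treated with compound for 3 hours, then stimulated with PDGF-BB (working stock 100 ng/mL in 10% FBS medium). After lysis, PDGFRβ P-Y751 was detected by HTRF.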

[2] = molecular target: Tb-labeled inactive PDGFRβ (Homo sapiens (Human), UniProt P09619); test: PDGFRβ LanthaScreen Assay; assay type: binding; conditions: read-out: PDGFR Lantha IC50
[3] = molecular target: VEGFR2, unphosphorylated (Homo sapiens (Human), UniProt P35968); test: VEGFR ADP GLO Assay; assay type: biochemical
Sequence of VEGFR2, unphosphorylated (P35968 20-1356): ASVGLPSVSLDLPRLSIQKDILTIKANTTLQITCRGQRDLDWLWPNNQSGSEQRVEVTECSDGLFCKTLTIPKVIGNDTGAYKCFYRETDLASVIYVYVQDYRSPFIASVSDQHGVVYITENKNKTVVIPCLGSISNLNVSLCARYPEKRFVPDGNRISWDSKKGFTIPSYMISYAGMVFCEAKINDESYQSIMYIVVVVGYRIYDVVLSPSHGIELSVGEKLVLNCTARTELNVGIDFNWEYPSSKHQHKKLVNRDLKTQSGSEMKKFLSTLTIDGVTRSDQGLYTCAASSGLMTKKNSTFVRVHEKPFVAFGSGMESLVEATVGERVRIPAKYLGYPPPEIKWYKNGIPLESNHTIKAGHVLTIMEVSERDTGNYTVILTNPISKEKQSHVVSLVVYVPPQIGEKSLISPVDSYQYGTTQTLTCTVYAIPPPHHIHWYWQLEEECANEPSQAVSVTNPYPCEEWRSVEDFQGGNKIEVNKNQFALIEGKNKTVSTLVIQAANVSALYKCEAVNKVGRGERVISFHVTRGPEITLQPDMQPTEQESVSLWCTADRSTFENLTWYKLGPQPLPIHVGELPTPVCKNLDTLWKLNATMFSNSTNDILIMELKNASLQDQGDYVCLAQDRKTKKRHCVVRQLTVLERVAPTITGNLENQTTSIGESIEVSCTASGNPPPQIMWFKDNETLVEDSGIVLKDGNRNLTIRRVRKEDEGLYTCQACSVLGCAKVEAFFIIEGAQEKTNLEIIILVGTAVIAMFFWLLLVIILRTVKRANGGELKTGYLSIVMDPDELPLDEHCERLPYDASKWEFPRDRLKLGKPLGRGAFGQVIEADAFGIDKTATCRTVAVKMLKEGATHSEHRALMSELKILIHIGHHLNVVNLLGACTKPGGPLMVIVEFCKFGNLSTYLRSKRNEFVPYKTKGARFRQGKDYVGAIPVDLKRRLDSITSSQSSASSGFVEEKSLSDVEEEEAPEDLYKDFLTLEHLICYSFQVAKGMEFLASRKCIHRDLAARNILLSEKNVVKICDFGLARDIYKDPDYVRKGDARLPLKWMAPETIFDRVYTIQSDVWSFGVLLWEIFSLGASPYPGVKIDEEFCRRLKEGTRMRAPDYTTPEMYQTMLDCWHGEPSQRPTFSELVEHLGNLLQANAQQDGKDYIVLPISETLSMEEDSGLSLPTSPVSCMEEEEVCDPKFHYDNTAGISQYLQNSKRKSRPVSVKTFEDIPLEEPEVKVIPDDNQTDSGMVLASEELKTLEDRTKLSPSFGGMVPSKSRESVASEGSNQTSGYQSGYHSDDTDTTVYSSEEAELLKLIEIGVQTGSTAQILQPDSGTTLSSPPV

Sequence of Tb-labeled inactive PDGFRβ (P09619 33-1106): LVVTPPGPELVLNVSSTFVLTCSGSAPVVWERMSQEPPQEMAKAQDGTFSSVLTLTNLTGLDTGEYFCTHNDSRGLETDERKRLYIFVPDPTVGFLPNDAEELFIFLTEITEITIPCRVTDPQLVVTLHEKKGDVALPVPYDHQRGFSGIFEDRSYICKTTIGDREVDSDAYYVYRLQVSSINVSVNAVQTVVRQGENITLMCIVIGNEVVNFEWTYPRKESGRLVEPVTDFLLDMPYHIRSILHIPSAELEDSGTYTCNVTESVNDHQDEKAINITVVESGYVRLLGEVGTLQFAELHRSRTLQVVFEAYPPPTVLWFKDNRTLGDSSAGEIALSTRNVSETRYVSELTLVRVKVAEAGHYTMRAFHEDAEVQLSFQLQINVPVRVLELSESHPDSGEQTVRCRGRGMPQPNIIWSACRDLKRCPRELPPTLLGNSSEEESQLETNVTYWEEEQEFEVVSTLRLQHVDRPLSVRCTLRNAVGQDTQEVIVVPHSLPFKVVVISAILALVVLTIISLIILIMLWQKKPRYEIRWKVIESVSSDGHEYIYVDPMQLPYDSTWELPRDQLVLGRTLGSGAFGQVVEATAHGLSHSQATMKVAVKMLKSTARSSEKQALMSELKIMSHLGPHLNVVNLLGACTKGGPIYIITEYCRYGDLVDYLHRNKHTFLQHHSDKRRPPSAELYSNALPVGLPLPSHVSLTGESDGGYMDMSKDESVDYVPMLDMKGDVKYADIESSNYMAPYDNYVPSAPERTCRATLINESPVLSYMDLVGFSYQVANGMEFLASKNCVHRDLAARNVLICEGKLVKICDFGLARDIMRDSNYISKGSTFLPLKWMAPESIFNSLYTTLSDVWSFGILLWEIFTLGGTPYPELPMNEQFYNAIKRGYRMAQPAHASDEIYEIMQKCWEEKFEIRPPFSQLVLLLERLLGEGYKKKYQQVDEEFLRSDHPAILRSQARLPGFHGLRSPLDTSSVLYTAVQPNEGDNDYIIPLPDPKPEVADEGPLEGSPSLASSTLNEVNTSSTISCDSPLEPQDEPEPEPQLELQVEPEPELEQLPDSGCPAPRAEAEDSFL
Sequence of PDGFRβ (Q05030 32-1097): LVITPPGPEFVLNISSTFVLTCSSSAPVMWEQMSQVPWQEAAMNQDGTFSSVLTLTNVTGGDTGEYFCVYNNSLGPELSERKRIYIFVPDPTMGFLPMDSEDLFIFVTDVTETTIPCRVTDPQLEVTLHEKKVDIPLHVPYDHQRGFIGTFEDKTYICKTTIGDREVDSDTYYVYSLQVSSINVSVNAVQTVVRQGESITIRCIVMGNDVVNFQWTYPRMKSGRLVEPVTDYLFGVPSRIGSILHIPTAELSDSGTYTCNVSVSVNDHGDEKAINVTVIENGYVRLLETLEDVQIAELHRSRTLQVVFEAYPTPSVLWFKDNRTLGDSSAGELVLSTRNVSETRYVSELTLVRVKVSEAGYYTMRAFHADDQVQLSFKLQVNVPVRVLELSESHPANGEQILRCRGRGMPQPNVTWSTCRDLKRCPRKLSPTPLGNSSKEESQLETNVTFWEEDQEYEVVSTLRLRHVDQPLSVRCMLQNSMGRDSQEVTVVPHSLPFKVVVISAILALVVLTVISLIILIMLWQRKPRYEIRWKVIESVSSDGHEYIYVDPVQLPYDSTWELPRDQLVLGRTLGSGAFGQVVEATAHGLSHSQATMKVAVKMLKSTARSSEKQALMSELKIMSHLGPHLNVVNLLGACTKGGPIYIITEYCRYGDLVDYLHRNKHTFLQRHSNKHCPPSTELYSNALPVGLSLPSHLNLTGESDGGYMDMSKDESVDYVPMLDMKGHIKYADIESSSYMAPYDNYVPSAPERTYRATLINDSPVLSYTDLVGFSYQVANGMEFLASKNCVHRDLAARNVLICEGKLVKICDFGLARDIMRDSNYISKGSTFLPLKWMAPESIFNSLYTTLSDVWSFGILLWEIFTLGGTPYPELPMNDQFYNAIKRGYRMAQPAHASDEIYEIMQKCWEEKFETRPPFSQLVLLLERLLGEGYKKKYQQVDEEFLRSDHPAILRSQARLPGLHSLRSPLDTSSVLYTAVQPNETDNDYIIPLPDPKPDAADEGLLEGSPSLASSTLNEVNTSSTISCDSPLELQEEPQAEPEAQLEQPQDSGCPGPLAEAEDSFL

SMILES | IC50 ([1]; read-out: PDGFR Cellular IC50) | IC50 [2] | IC50 [3] | IC50 ([1]; PDGFR Cellular IC50)
Cc1ncc(NC(=O)CN2CCCCC23CC3)cc1NC(=O)c1cnn2cc(-c3cnn(CCO)c3)sc12 [Example 86, N-(5-(2-(4-azaspiro[2.5]octan-4-yl)acetamido)-2-methylpyridin-3-yl)-2-(1-(2-hydroxyethyl)-1H-pyrazol-4-yl)pyrazolo[5,1-b]thiazole-7-carboxamide] | 18.4 nM | 7.3 nM | > 7.5 µM | –
Cc1ncc(NC(=O)CN2CCCC23CC3)cc1NC(=O)c1cnn2cc(-c3cnn(CCO)c3)sc12 [Example 87, N-(5-(2-(4-azaspiro[2.4]heptan-4-yl)acetamido)-2-methylpyridin-3-yl)-2-(1-(2-hydroxyethyl)-1H-pyrazol-4-yl)pyrazolo[5,1-b]thiazole-7-carboxamide] | 1 nM | 3.2 nM | > 7.5 µM | –
Cc1ncc(NC(=O)CCN2CCCC2(C)C)cc1NC(=O)c1cnn2cc(-c3cnn(CCO)c3)sc12 [Example 88, N-(5-(3-(2,2-dimethylpyrrolidin-1-yl)propanamido)-2-methylpyridin-3-yl)-2-(1-(2-hydroxyethyl)-1H-pyrazol-4-yl)pyrazolo[5,1-b]thiazole-7-carboxamide] | 141 nM | 4.2 nM | > 7.5 µM | –
COCCn1cc(-c2cn3ncc(C(=O)Nc4cc(NC(=O)CCN5CCC(C)(C)C5)cnc4C)c3s2)cn1 [Example 89, N-(5-(3-(3,3-dimethylpyrrolidin-1-yl)propanamido)-2-methylpyridin-3-yl)-2-(1-(2-methoxyethyl)-1H-pyrazol-4-yl)pyrazolo[5,1-b]thiazole-7-carboxamide] | 26.2 nM | 12.7 nM | > 7.5 µM | –
COCCn1cc(-c2cn3ncc(C(=O)Nc4cc(NC(=O)CCN5CCC6(CCC6)C5)cnc4C)c3s2)cn1 [Example 90, N-(5-(3-(6-azaspiro[3.4]octan-6-yl)propanamido)-2-methylpyridin-3-yl)-2-(1-(2-methoxyethyl)-1H-pyrazol-4-yl)pyrazolo[5,1-b]thiazole-7-carboxamide] | 19.9 nM | 10.6 nM | > 2.5 µM | –
COCCn1cc(-c2cn3ncc(C(=O)Nc4cc(NC(=O)CCN5CCC6(CC6)C5)cnc4C)c3s2)cn1 [Example 91, N-(5-(3-(5-azaspiro[2.4]heptan-5-yl)propanamido)-2-methylpyridin-3-yl)-2-(1-(2-methoxyethyl)-1H-pyrazol-4-yl)pyrazolo[5,1-b]thiazole-7-carboxamide] | 36.4 nM | 13.2 nM | > 7.5 µM | –
COCCn1cc(-c2cn3ncc(C(=O)Nc4cc(NC(=O)CCN5C[C@@H]6CC[C@H]5C6)cnc4C)c3s2)cn1 [Example 92, N-(5-(3-((1S,4R)-2-azabicyclo[2.2.1]heptan-2-yl)propanamido)-2-methylpyridin-3-yl)-2-(1-(2-methoxyethyl)-1H-pyrazol-4-yl)pyrazolo[5,1-b]thiazole-7-carboxamide] | 122 nM | 7.2 nM | > 7.5 µM | –
COCCn1cc(-c2cn3ncc(C(=O)Nc4cc(NC(=O)CCN5CC(C)(C)C5)cnc4C)c3s2)cn1 [Example 93, N-(5-(3-(3,3-dimethylazetidin-1-yl)propanamido)-2-methylpyridin-3-yl)-2-(1-(2-methoxyethyl)-1H-pyrazol-4-yl)pyrazolo[5,1-b]thiazole-7-carboxamide] | 66 nM | 29.1 nM | > 7.5 µM | –
COCCn1cc(-c2cn3ncc(C(=O)Nc4cc(NC(=O)CCN5C[C@H]6CC[C@@H]5C6)cnc4C)c3s2)cn1 [Example 94, N-(5-(3-((1R,4S)-2-azabicyclo[2.2.1]heptan-2-yl)propanamido)-2-methylpyridin-3-yl)-2-(1-(2-methoxyethyl)-1H-pyrazol-4-yl)pyrazolo[5,1-b]thiazole-7-carboxamide] | 143 nM | 14.2 nM | > 7.5 µM | –
Cc1ncc(C(=O)NCCN2CCCC2(C)C)cc1NC(=O)c1cnn2cc(-c3ccnc(N4CCOCC4)c3)sc12 [Example 483, N-(5-((2-(2,2-dimethylpyrrolidin-1-yl)ethyl)carbamoyl)-2-methylpyridin-3-yl)-2-(2-morpholinopyridin-4-yl)pyrazolo[5,1-b]thiazole-7-carboxamide] | – | 2.1 nM | > 7.5 µM | 17.7 nM
Cc1ncc(C(=O)NCCN2CC3CCC2CC3)cc1NC(=O)c1cnn2cc(-c3ccnc(N4CCOCC4)c3)sc12 [Example 484, N-(5-((2-(2-azabicyclo[2.2.2]octan-2-yl)ethyl)carbamoyl)-2-methylpyridin-3-yl)-2-(2-morpholinopyridin-4-yl)pyrazolo[5,1-b]thiazole-7-carboxamide] | 44.1 nM | 1.4 nM | > 7.5 µM | –
COCCn1cc(-c2cn3ncc(C(=O)Nc4cc(NC(=O)C[C@H]5CCCN5C(C)C)cnc4C)c3s2)cn1 [Example 485, (R)—N-(5-(2-(1-isopropylpyrrolidin-2-yl)acetamido)-2-methylpyridin-3-yl)-2-(1-(2-methoxyethyl)-1H-pyrazol-4-yl)pyrazolo[5,1-b]thiazole-7-carboxamide] | 34.4 nM | 16.3 nM | > 7.5 µM | –
COCCn1cc(-c2cn3ncc(C(=O)Nc4cc(NC(=O)C[C@H]5CCN(C(C)C)C5)cnc4C)c3s2)cn1 [Example 486, (R)—N-(5-(2-(1-isopropylpyrrolidin-3-yl)acetamido)-2-methylpyridin-3-yl)-2-(1-(2-methoxyethyl)-1H-pyrazol-4-yl)pyrazolo[5,1-b]thiazole-7-carboxamide] | 2000 nM | 127 nM | > 7.5 µM | –
COCCn1cc(-c2cn3ncc(C(=O)Nc4cc(NC(=O)C5(CN6CCCC6(C)C)CC5)cnc4C)c3s2)cn1 [Example 487, N-(5-(1-((2,2-dimethylpyrrolidin-1-yl)methyl)cyclopropane-carboxamido)-2-methylpyridin-3-yl)-2-(1-(2-methoxyethyl)-1H-pyrazol-4-yl)pyrazolo[5,1-b]thiazole-7-carboxamide] | 42.6 nM | 197 nM | > 7.5 µM | –
COCCn1cc(-c2cn3ncc(C(=O)Nc4cc(NC(=O)C(C)(C)CN5CCCC5(C)C)cnc4C)c3s2)cn1 [Example 488, N-(5-(3-(2,2-dimethylpyrrolidin-1-yl)-2,2-dimethyl-propanamido)-2-methylpyridin-3-yl)-2-(1-(2-methoxyethyl)-1H-pyrazol-4-yl)pyrazolo[5,1-b]thiazole-7-carboxamide] | 375 nM | 1280 nM | > 7.5 µM | –
Cc1ncc(NC(=O)CNCC(C)C)cc1NC(=O)c1cnn2cc(-c3cnn4c3CCC4)sc12 [Example 493, 2-(5,6-dihydro-4H-pyrrolo[1,2-b]pyrazol-3-yl)-N-(5-(2-(isobutylamino)acetamido)-2-methylpyridin-3-yl)pyrazolo[5,1-b]thiazole-7-carboxamide] | 7 nM | 1.9 nM | > 7.5 µM | –
Cc1ncc(NC(=O)CNC2CCC2)cc1NC(=O)c1cnn2cc(-c3cnn4c3OCCC4)sc12 [Example 494, N-(5-(2-(cyclobutylamino)acetamido)-2-methylpyridin-3-yl)-2-(6,7-dihydro-5H-pyrazolo[5,1-b][1,3]oxazin-3-yl)pyrazolo[5,1-b]thiazole-7-carboxamide] | 9.6 nM | 3.9 nM | > 7.5 µM | –
